Where “and” joins values, the source holds several entries; their conditions need not be identical. Identical values can stand only once.
Each molecule was assayed against T1, chymotrypsin-like activity of the 20S proteasome (Homo sapiens, UniProt P20618+P28074) (assay: Inhibition of the chymotrypsin-like activity of the 20S proteasome (Suc-LLVY-AMC hydrolysis)). Conditions: purified human placenta 20S proteasome, Suc-LLVY-AMC substrate, read-out: IC50 [μM] (results of one or two experiments).
T1 construct: purified human placenta 20S proteasome; tissue Diabetes Forschungsinstitut, Düsseldorf, Germany; host or cells: human placenta
Format: biochemical
Description: It is based on the hydrolysis of the fluorogenic peptide Suc-LLVY-AMC (Succinyl-leucine-leucine-vatine-tyrosine-7-amino-4-methyl-coumarin), which is cleaved exclusively at the Y-AMC bond by the 20S proteasome. Hydrolysis of this peptide is accompanied by an increase in fluorescence intensity (λex (excitation wavelength): 355 nm; μem (emission wavelength): 460 nm) due to release of the […] that accompanies diffusion apart of the hydrolysis product Suc-LLVY.
2 μl of a 1 mM solution of a test compound in DMSO (dimethylsulfoxide, 20 μM final concentration in the well) are preincubated for 60 min at room temperature in black 96-well microtiter plates together with a mixture of 1 μl purified human placenta 20S proteasome (Diabetes Forschungsinstitut, DÜsseldorf, Germany; about 100 ng proteasome, depending on the proteasome preparation) and 47 μl buffer-Ca (5 mM CaCl2, 20 mM Tris/HCl (Tris-(hydroxymethyl)-amino-methane hydrochloride) pH 8.0). 3 μl of a 2.67 mM solution of Suc-LLVY-AMC (Bachem, Switzerland) in DMSO (80 μM final concentration in the well) and 47 μl buffer-Ca are mixed and added. The resulting mixture is incubated for 3-24 h at 37° C. If desired, proteolysis of the substrate can be stopped by addition of 50 μl stop solution (100 mM monochloroacetic acid, 130 mM NaOH, 100 mM acetic acid, pH=4.3). The fluorescence is monitored with a FLUOROSKAN ASCENT™ microtiter plate reader.
For each measurement series two control experiments are carried out: • 1.) 0% value: 2 μl DMSO are used in the above described assay instead of 2 μl of a 1 mM solution of a test compound in DMSO and 48 μl buffer-Ca instead of a mixture of 47 μl buffer-Ca and 1 μl purified proteasome. • 2.) 100% value: in the above described assay 2 μl DMSO are used instead of 2 μl of a 1 mM solution of the test compound in DMSO. Calculation [formula]
The IC50 value is defined as that concentration of a compound at which the remaining activity is 50% compared to the […].
`COc1cc(C[C@H](Nc2cccc(-c3ccccc3)c2)C(=O)N[C@H](C(=O)N[C@@H](CC(C)C)B2O[C@@H]3C[C@@H]4C[C@@H](C4(C)C)[C@]3(C)O2)C(C)C)cc(OC)c1OC` [Example 1, (S)-2-[(S)-2-(Biphenyl-3-ylamino)-3-(3,4,5-trimethoxy-phenyl)-propionylamino]-3-methyl-N-[(R)-3-methyl-1-((1S,2S,6R,8S)-2,9,9-trimethyl-3,5-dioxa-4-bora-tricyclo[6.1.1.0^2,6]dec-4-yl)-butyl]-butyramide] was tested, and the IC50 was 0.0046 µM and 0.0024 µM.
`COc1cc(C[C@H](Nc2cccc(-c3ccccc3)c2)C(=O)N[C@H](C(=O)N[C@@H](CC(C)C)B(O)O)C(C)C)cc(OC)c1OC` [Example 2, (R)-1-{(S)-2-[(S)-2-(Biphenyl-3-ylamino)-3-(3,4,5-trimethoxy-phenyl)-propionylamino]-3-methyl-butyrylamino}-3-methyl-butylboronic acid] was tested, and the IC50 was 0.0028 µM and 0.0021 µM.
With `COc1ccc(C[C@H](NC(=O)Cc2cccc(Oc3ccccc3)c2)C(=O)N[C@H](C(=O)N[C@@H](CC(C)C)B2O[C@@H]3C[C@@H]4C[C@@H](C4(C)C)[C@]3(C)O2)C(C)C)c(OC)c1OC` [Example 3, (S)-3-Methyl-N-[(R)-3-methyl-1-((1S,2S,6R,8S)-2,9,9-trimethyl-3,5-dioxa-4-bora-tricyclo[6.1.1.0^2,6]dec-4-yl)-butyl]-2-[(S)-2-[2-(3-phenoxy-phenyl)-acetylamino]-3-(2,3,4-trimethoxy-phenyl)-propionylamino]-butyramide] the IC50 was 0.0017 µM and 0.0014 µM.
With `COc1ccc(C[C@H](NC(=O)Cc2cccc(Oc3ccccc3)c2)C(=O)N[C@H](C(=O)N[C@@H](CC(C)C)B(O)O)C(C)C)c(OC)c1OC` [Example 4] the IC50 was 0.0019 µM and 0.0015 µM.
For `COc1ccc(C[C@H](NC(=O)CCc2ccccc2)C(=O)N[C@H](C(=O)N[C@@H](CC(C)C)B2O[C@@H]3C[C@@H]4C[C@@H](C4(C)C)[C@]3(C)O2)C(C)C)c(OC)c1OC` [Example 5, (S)-3-Methyl-N-[(R)-3-methyl-1-((1S,2S,6R,8S)-2,9,9-trimethyl-3,5-dioxa-4-bora-tricyclo[6.1.1.0^2,6]dec-4-yl)-butyl]-2-[(S)-2-(3-phenyl-propionyl-amino)-3-(2,3,4-trimethoxyphenyl)-propionylamino]-butyramide], the IC50 was 0.0013 µM and 0.0006 µM.
`COc1ccc(C[C@H](NC(=O)CCc2ccccc2)C(=O)N[C@H](C(=O)N[C@@H](CC(C)C)B(O)O)C(C)C)c(OC)c1OC` [Example 6, (R)-3-Methyl-1-{(S)-3-methyl-2-[(S)-2-(3-phenyl-propionylamino)-3-(2,3,4-trimethoxy-phenyl)-propionylamino]-butyrylamino}-butylboronic acid] was tested, and the IC50 was 0.0018 µM and 0.0019 µM.
`COc1ccc(C[C@H](Nc2cccc(-c3ccccc3)c2)C(=O)N[C@H](C(=O)N[C@@H](CC(C)C)B2O[C@@H]3C[C@@H]4C[C@@H](C4(C)C)[C@]3(C)O2)C(C)C)cc1` [Example 7, (S)-2-[(S)-2-(Biphenyl-3-ylamino)-3-(4-methoxy-phenyl)-propionylamino]-3-methyl-N-[(R)-3-methyl-1-((1S,2S,6R,8S)-2,9,9-trimethyl-3,5-dioxa-4-bora-tricyclo[6.1.1.0^2,6]dec-4-yl)-butyl]-butyramide] was tested, and the IC50 was 0.0029 µM and 0.0032 µM.
`COc1ccc(C[C@H](Nc2cccc(-c3ccccc3)c2)C(=O)N[C@H](C(=O)N[C@@H](CC(C)C)B(O)O)C(C)C)cc1` [Example 8, (R)-1-{(S)-2-[(S)-2-(Biphenyl-3-ylamino)-3-(4-methoxy-phenyl)-propionylamino]-3-methyl-butyrylamino}-3-methyl-butylboronic acid] was tested, and the IC50 was 0.0028 µM and 0.0045 µM.
With `COc1ccc(C[C@H](Nc2cccc(-c3ccccc3)c2)C(=O)N[C@H](C(=O)N[C@@H](CC(C)C)B2O[C@@H]3C[C@@H]4C[C@@H](C4(C)C)[C@]3(C)O2)C(C)C)cc1OC` [Example 9, (S)-2-[(S)-2-(Biphenyl-3-ylamino)-3-(3,4-dimethoxy-phenyl)-propionylamino]-3-methyl-N-[(R)-3-methyl-1-((1S,2S,6R,8S)-2,9,9-trimethyl-3,5-dioxa-4-bora-tricyclo[6.1.1.0^2,6]dec-4-yl)-butyl]-butyramide] the IC50 was 0.0017 µM and 0.0022 µM.
`COc1ccc(C[C@H](Nc2cccc(-c3ccccc3)c2)C(=O)N[C@H](C(=O)N[C@@H](CC(C)C)B(O)O)C(C)C)cc1OC` [Example 10, (R)-1-{(S)-2-[(S)-2-(Biphenyl-3-ylamino)-3-(3,4-dimethoxy-phenyl)-propionylamino]-3-methyl-butyrylamino}-3-methyl-butylboronic acid] was tested, and the IC50 was 0.0029 µM and 0.004 µM.
`COc1cc(C[C@H](Nc2cccc(C(C)C)c2)C(=O)N[C@H](C(=O)N[C@@H](CC(C)C)B2O[C@@H]3C[C@@H]4C[C@@H](C4(C)C)[C@]3(C)O2)C(C)C)cc(OC)c1OC` [Example 11, (S)-2-[(S)-2-(3-Isopropyl-phenylamino)-3-(3,4,5-trimethoxy-phenyl)-propionylamino]-3-methyl-N-[(R)-3-methyl-1-((1S,2S,6R,8S)-2,9,9-trimethyl-3,5-dioxa-4-bora-tricyclo[6.1.1.0^2,6]dec-4-yl)-butyl]-butyramide] gave an IC50 of 0.0039 µM.
With `COc1cc(C[C@H](Nc2cccc(C(C)C)c2)C(=O)N[C@H](C(=O)N[C@@H](CC(C)C)B(O)O)C(C)C)cc(OC)c1OC` [Example 12, (R)-1-{(S)-2-[(S)-2-(3-Isopropyl-phenylamino)-3-(3,4,5-trimethoxy-phenyl)-propionylamino]-3-methyl-butyrylamino}-3-methyl-butylboronic acid] the IC50 was 0.0038 µM.
`COc1cc(C[C@H](Nc2cccc(-c3ccccn3)c2)C(=O)N[C@H](C(=O)N[C@@H](CC(C)C)B2O[C@@H]3C[C@@H]4C[C@@H](C4(C)C)[C@]3(C)O2)C(C)C)cc(OC)c1OC` [Example 13, (S)-3-Methyl-N-[(R)-3-methyl-1-((1S,2S,6R,8S)-2,9,9-trimethyl-3,5-dioxa-4-bora-tricyclo[6.1.1.0^2,6]dec-4-yl)-butyl]-2-[(S)-2-(3-pyridin-2-yl-phenylamino)-3-(3,4,5-trimethoxy-phenyl)-propionylamino]-butyramide] gave an IC50 of 0.0013 µM.
`COc1cc(C[C@H](Nc2cccc(-c3ccccn3)c2)C(=O)N[C@H](C(=O)N[C@@H](CC(C)C)B(O)O)C(C)C)cc(OC)c1OC` [Example 14, (R)-3-Methyl-1-[(S)-3-methyl-2-[(S)-2-(3-pyridin-2-yl-phenylamino)-3-(3,4,5-trimethoxy-phenyl)-propionylamino]-butyrylamino)-butylboronic acid] showed an IC50 of 0.0017 µM.
`COc1ccc(C[C@H](Nc2cccc(-c3ccccc3)c2)C(=O)N[C@H](C(=O)N[C@@H](CC(C)C)B2O[C@@H]3C[C@@H]4C[C@@H](C4(C)C)[C@]3(C)O2)C(C)C)c(OC)c1OC` [Example 15, (S)-2-[(S)-2-(Biphenyl-3-ylamino)-3-(2,3,4-trimethoxy-phenyl)-propionylamino]-3-methyl-N-[(R)-3-methyl-1-((1S,2S,6R,8S)-2,9,9-trimethyl-3,5-dioxa-4-bora-tricyclo[6.1.1.0^2,6]dec-4-yl)-butyl]-butyramide] was tested, and the IC50 was 0.0071 µM.
In the case of `COc1ccc(C[C@H](Nc2cccc(-c3ccccc3)c2)C(=O)N[C@H](C(=O)N[C@@H](CC(C)C)B(O)O)C(C)C)c(OC)c1OC` [Example 16, (R)-1-{(S)-2-[(S)-2-(Biphenyl-3-ylamino)-3-(2,3,4-trimethoxy-phenyl)-propionylamino]-3-methyl-butyrylamino}-3-methyl-butylboronic acid], the IC50 is reported as 0.0059 µM.
In the case of `CC(C)C[C@H](NC(=O)[C@@H](NC(=O)[C@H](Cc1ccc(OCc2ccccc2)cc1)Nc1cccc(-c2ccccc2)c1)C(C)C)B1O[C@@H]2C[C@@H]3C[C@@H](C3(C)C)[C@]2(C)O1` [Example 17, (S)-2-[(S)-3-(4-Benzyloxy-phenyl)-2-(biphenyl-3-ylamino)-propionylamino]-3-methyl-N-[(R)-3-methyl-1-((1S,2S,6R,8S)-2,9-trimethyl-3,5-dioxa-4-bora-tricyclo[6.1.1.0^2,6]dec-4-yl)-butyl]-butyramide], the IC50 is reported as 0.0093 µM.
`CC(C)C[C@H](NC(=O)[C@@H](NC(=O)[C@H](Cc1ccc(OCc2ccccc2)cc1)Nc1cccc(-c2ccccc2)c1)C(C)C)B(O)O` [Example 18, (R)-1-{(S)-2-[(S)-3-(4-Benzyloxy-phenyl)-2-(biphenyl-3-ylamino)-propionylamino]-3-methyl-butyrylamino}-3-methyl-butylboronic acid] showed an IC50 of 0.0015 µM.
`COc1cc(C[C@@H](Nc2cccc(-c3ccccc3)c2)C(=O)N[C@H](C(=O)N[C@@H](CC(C)C)B2O[C@@H]3C[C@@H]4C[C@@H](C4(C)C)[C@]3(C)O2)C(C)C)cc(OC)c1OC` [Example 21, (S)-2-[(R)-2-(Biphenyl-3-ylamino)-3-(3,4,5-trimethoxy-phenyl)-propionylamino]-3-methyl-N-[(R)-3-methyl-1-((1S,2S,6R,8S)-2,9,9-trimethyl-3,5-dioxa-4-bora-tricyclo[6.1.1.0^2]dec-4-yl)-butyl]-butyramide] was tested, and the IC50 was 0.0015 µM.
